Source: article PMC3946636 (Cancer chemotherapy and pharmacology, 2013)

Experiments:
[1] = Plasma pharmacokinetics, LC-MS/MS, non-compartmental analysis; format: in vivo, human; conditions: for AUC(0-inf) / clearance / Cmax / half-life / Tmax / Vd: human, plasma, intravenous; for AUC(0-inf): Mean AUC0-∞ ± SD; for clearance: Mean CL ± SD; for Cmax: Mean Cmax ± SD; for half-life: Mean T1/2 ± SD; for Vd: Mean Vz ± SD
[2] = in human serum; cited from earlier work
relapsed myeloma = test: Clinical response by International Myeloma Working Group criteria; format: in vivo, human; conditions: 15 patients, all dose levels
[3] = in vivo
[4] = dose level 30 + 30 mg/m^2, cycle 1 days 1 and 22 combined
[5] = dose level 30+50 mg/m^2, cycle 1 days 1 and 22 combined
[6] = dose level 50+50 mg/m^2, cycle 1 days 1 and 22 combined

Q: Which results are given for `CN1CC[C@H](c2c(O)cc(O)c3c(=O)cc(-c4ccccc4Cl)oc23)[C@H](O)C1` [Flavopiridol]?
A: AUC(0-inf) [1, 4]: 7.78 ± 2.75 µM·h; AUC(0-inf) [1, 5]: 4.75 ± 1.06 µM·h; AUC(0-inf) [1, 6]: 14.2 ± 5.34 µM·h; clearance [1, 4]: 666 mL/min; clearance [1, 5]: 1280 mL/min; clearance [1, 6]: 643 mL/min; Cmax [1, 4]: 1850 ± 800 nM; Cmax [1, 5]: 1090 ± 430 nM; Cmax [1, 6]: 2410 ± 740 nM; half-life [1, 4]: 6.87 ± 3.24 h; half-life [1, 5]: 3.65 ± 1.75 h; half-life [1, 6]: 5.35 ± 2.83 h; Tmax ([1]; Mean Tmax ± SD, dose level 30 + 30 mg/m^2, cycle 1 days 1 and 22 combined): 0.52 ± 0.03 h; Tmax ([1]; Mean Tmax ± SD, dose level 30+50 mg/m^2, cycle 1 days 1 and 22 combined): 1.18 ± 1.22 h; Tmax ([1]; Mean Tmax ± SD, dose level 50+50 mg/m^2, cycle 1 days 1 and 22 combined): 1.4 ± 1.67 h; Vd [1, 4]: 368 ± 210 L; Vd [1, 5]: 417 ± 242 L; Vd [1, 6]: 317 ± 255 L; Tmax ([1]; Tmax, outlier, 30/50 mg/m^2 dose level group, single profile): 3 h; Average difference in AUC(0-∞), day 22 versus day 1 ([1]; patients with PK data on both days (n=6), 95% CI −2.78 to 4.78, P=0.53): 1.00 µM·h; Protein binding [2]: highly protein bound; Confirmed partial responses (relapsed myeloma): no confirmed partial responses; Patients with progressive disease after the first cycle (relapsed myeloma): 4 patients; Dehydration, patients with toxicity ([3]; human): 2 n; Diaphoresis, patients with toxicity ([3]; human): 1 n; Dizziness, patients with toxicity ([3]; human): 1 n; Hyperglycemia, patients with toxicity ([3]; human): 4 n; Hyperkalemia, patients with toxicity ([3]; human): 2 n; Hypocalcemia, patients with toxicity ([3]; human): 3 n; Lymphopenia, patients with toxicity ([3]; human): 5 n; Nausea, patients with toxicity ([3]; human): 3 n; Vomiting, patients with toxicity ([3]; human): 1 n; Serious adverse events, number [3]: eight
